Results: patent US10207984B2, “Cyclopropyl derivatives and methods of use” (Emory University, priority 2011, dated 2019)
Counter-ions that a name gives are not always drawn. Like-named read-outs stand apart in the source and are kept apart here.

Tests used:
[1] = molecular target: T1, 5-HT transport (SERT) sites (Rattus norvegicus, UniProt P31652); test: SERT binding, displacement of [3H]citalopram in rat frontal cortex membranes
T1 construct: Tissue is obtained from frozen rat brains as described above; from tissue; host or cells: rat frontal cortex membranes (frozen rat brains)
T1 sequence (P31652 whole entry): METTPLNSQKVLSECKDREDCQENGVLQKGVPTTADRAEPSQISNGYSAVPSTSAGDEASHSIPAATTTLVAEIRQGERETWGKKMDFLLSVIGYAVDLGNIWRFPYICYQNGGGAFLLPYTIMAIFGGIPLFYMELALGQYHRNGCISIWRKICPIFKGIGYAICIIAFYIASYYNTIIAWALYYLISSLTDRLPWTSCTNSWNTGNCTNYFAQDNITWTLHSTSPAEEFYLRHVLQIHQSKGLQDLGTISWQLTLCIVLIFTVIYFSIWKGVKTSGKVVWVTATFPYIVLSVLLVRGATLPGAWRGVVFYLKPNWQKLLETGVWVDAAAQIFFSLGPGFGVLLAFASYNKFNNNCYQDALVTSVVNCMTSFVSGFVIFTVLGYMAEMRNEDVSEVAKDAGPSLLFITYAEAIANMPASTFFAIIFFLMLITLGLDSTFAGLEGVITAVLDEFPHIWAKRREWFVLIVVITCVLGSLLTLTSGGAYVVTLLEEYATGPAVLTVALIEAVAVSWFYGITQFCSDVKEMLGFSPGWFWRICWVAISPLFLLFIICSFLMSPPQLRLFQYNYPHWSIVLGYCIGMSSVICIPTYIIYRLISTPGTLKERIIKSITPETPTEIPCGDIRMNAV
Method: Affinities of analogs at 5-HT transport (SERT) sites are determined by displacement of [^3H] citalopram binding in membranes from rat frontal cortex. […] Assay tubes contain 50 mg (original wet weight) of membranes, 0.4 nM [^3H]citalopram, and various concentrations of unlabeled drugs dissolved in citalopram assay buffer in a final volume of 2 ml. Tubes are incubated for 60 min at 25° C., and the reaction is terminated by rapid filtration with 3×4 mL of cold Tris buffer through Whatman GF/B glass fiber filters pre-soaked in Tris buffer containing 0.1% BSA for at least 1 h. Non-specific binding is determined in the presence of 10 μM fluoxetine.
(§1) Binding of analogs at norepinephrine transporters (NET) was determined by displacement of [^3H]nisoxetine binding. […] The membranes are resuspended in nisoxetine assay buffer (300 mM NaCl, 5 mM KCl, 50 mM Tris-HCl, pH 7.4) and centrifuged again before final resuspension in volumes of buffer. Assay tubes contain 750 μl of brain membranes, [^3H]nisoxetine (0.7 nM) together with unlabeled drugs dissolved in nisoxetine assay buffer to a final volume of 1 ml. Tubes are incubated for 40 min at 25° C., and the reaction is terminated by rapid filtration with 3×4 mL of cold Tris buffer through Whatman GF/B glass fiber filters which have been pre-soaked in Tris buffer containing 0.1% BSA for at least 1 h. Non-specific binding is determined in the presence of 1 μM desipramine. In [^3H]citalopram and [^3H]nisoxetine binding assays, radioactivity is determined by liquid scintillation spectrophotometry (efficiency: 50%) after eluting filters overnight in 5 mL of Ecolite scintillation fluid (ICN). IC50 values are calculated from displacement curves using 7-10 concentrations of unlabeled analogs. […] For [^3H]paroxetine and [^3H]nisoxetine binding assays, Ki values are calculated using the Cheng-Prusoff equation.

[2] = molecular target: T2, norepinephrine transporters (NET) (Rattus norvegicus, UniProt Q9WTR4); test: NET binding, displacement of [3H]nisoxetine in rat brain membranes
T2 construct: Whole rat brains (minus cerebellum) are homogenized; from tissue; host or cells: rat whole brain minus cerebellum, membranes
T2 sequence (Q9WTR4 1-597): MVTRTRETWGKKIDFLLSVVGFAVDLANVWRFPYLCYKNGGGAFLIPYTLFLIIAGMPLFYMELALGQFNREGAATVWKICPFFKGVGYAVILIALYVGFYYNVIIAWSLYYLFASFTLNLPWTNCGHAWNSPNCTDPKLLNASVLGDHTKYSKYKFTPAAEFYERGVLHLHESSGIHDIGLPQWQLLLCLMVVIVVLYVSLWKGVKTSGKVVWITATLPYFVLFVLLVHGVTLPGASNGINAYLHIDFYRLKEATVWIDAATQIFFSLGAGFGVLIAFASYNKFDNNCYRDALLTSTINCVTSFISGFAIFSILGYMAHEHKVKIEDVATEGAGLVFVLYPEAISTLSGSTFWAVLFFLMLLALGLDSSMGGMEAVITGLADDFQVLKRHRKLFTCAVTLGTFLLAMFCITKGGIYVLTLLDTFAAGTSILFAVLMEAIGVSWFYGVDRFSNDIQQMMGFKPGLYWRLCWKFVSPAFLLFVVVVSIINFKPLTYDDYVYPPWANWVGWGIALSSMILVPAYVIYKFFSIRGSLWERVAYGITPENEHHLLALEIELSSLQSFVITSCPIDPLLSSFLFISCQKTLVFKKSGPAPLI
Method: as §1

[3] = molecular target: T3, dopamine transport (DAT) sites (Rattus norvegicus, UniProt P23977); test: DAT binding, displacement of [125I]RTI-55 in rat striatum membranes
T3 construct: from tissue; host or cells: Sprague-Dawley rat striatum membranes
T3 sequence (P23977 whole entry): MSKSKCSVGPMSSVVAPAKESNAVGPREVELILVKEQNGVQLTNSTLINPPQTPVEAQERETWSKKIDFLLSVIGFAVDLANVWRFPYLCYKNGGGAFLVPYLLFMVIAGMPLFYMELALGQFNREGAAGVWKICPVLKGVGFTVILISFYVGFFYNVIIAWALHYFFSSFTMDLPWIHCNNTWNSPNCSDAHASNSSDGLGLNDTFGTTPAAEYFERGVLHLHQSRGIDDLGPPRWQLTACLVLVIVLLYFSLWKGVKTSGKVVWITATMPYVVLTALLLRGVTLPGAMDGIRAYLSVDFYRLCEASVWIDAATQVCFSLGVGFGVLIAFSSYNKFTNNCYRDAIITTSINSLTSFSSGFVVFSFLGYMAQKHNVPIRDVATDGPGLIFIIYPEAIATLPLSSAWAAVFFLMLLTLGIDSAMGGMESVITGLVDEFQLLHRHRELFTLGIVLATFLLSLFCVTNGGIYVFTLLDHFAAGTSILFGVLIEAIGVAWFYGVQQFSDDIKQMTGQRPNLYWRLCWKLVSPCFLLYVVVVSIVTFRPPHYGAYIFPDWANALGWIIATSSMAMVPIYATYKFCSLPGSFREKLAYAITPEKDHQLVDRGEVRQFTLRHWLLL
Method: Frozen brains from Sprague-Dawley rats are obtained commercially and striata are dissected on ice. […] Tubes are incubated for 50 min at 25° C., and the reaction is terminated by rapid filtration with 3-5 ml of cold Tris buffer through Whatman GF/B glass fiber filters pre-soaked in Tris buffer containing 0.1% BSA for at least 1 h. Non-specific binding is determined in the presence of 1 μMWF-23. […]

Log-P (Table 1) = format: physicochemical
SNL rats = test: Mechanical allodynia (paw withdrawal threshold) in L5/L6 spinal nerve ligation (SNL) model of neuropathic pain; format: in vivo, rat; conditions: for anti-allodynic effect (in words): i.t., clonidine 10 μg, HD-283 30 μg, HD-286 and HD-288 up to 3 μg
Excerpt: A 3 cm incision was made in the back using the iliac crests as a midpoint. An incision was then made in the underlying muscle, which was then separated by both sharp and blunt dissection to expose the left transverse process of the fifth lumbar vertebra. The transverse process was removed using bone microrongeurs, and the fifth lumbar nerve was exteriorized from underneath the spinal column using a small metal hook and ligated using 4.0 silk suture with sufficient pressure to cause the nerve to bulge on each side of the ligature. The sixth lumbar nerve was exteriorized from underneath the iliac bone at the sciatic notch and ligated in a similar manner. All muscle layers were sutured using 4.0 chromic gut, the skin was sutured using 4.0 nylon suture.
The animal is placed in a stereotaxic frame to immobilize the head under pentobarbital anesthesia. The animal's body is lifted and supported to render the spinal column straight and level and the animal's head is placed downward such the top of the skull forms a 90° angle with the spinal column. A small incision is placed at the back of the neck and the underlying muscles are blunt dissected to reveal the atlanto-occipital membrane. A small incision is placed in the atlanto-occipital membrane through which a 32 ga polyethylene catheter is inserted that is 8 cm in length. The catheter is anchored to the neck muscles with 4.0 silk suture and the exterior wounds are closed with 4.0 nylon suture.
All compounds were dissolved in 0.9% (wt/vol) saline, pH 7.4 and administered through the intrathecal catheter in a volume of 5 μl, followed by 15 μl of 0.9% saline to flush the catheter.
Paw withdrawal threshold was determined before and at selected time points following intrathecal drug administration using calibrated von Frey filaments. The animals are placed in elevated Plexiglas chambers with wire mesh floors and acclimated for a minimum of 30 minutes. Beginning with a filament calibrated to bend with a force of 2 g of pressure, the filament is applied to the plantar surface of the left hindpaw with sufficient force to bend slightly and left in place for 8 seconds or until the animal withdraws it's paw from the filament. In the absence of a paw withdrawal, the next highest calibrated filament is applied in a similar manner. In the presence of a paw withdrawal, the next lowest calibrated filament is applied. This up-down method continues until 4 responses are recorded after an initial positive response. The paw withdrawal threshold is calculated using Dixon non-parametric statistics.
The potency and efficacy of novel SNRT analogs in reversing mechanical hypersensitivity were determined in the L5/L6 spinal nerve ligation (SNL) model of neuropathic pain in rats. Compounds were administered intrathecal (i.t.) and the effect on paw withdrawal threshold was assessed at various time points following treatment.

[4] = [3H]citalopram displacement, rat frontal cortex membranes, Ki by Cheng-Prusoff, read-out: SERT
[5] = [3H]nisoxetine displacement, rat brain membranes, Ki by Cheng-Prusoff, read-out: NET
[6] = [125I]RTI-55 displacement, rat striatum membranes, reported as IC50, read-out: DAT

Row | Ki [1, 4] [nM] | Ki [2, 5] [nM] | IC50 [3, 6] [nM] | Log-P (Log-P (Table 1)) | Structure (SMILES) | also measured
1 | 157 ± 4.8 | 152 ± 65 | 1780 ± 87 | 1.65 | CNCC1CC1(C(=O)OC)c1ccccc1 (racemic) [HD-284, Methyl 2-((methylamino)methyl)-1-phenylcyclopropanecarboxylate] | –
2 | 210 ± 10 | 3.7 ± 1.4 | 1460 ± 470 | 2.51 | CNCC1CC1(C(=O)OC)c1ccc(Br)cc1 (racemic) [HD-285, Methyl 1-(4-bromophenyl)-2-((methylamino)methyl)cyclopropanecarboxylate] | –
3 | 4.85 ± 1 | 315 ± 100 | – | 3.54 | CNCC1CC1(C(=O)OC)c1ccc(-c2ccccc2)cc1 (racemic) [HD-286, Methyl 1-([1,1′-biphenyl]-4-yl)-2-((methylamino)methyl)cyclopropanecarboxylate hydrochloride] | anti-allodynic effect (in words) (SNL rats): significantly lower efficacy
4 | 5.6 ± 0.39 | 0.8 ± 0.02 | – | 2.95 | CNCC1CC1(C(=O)OC)c1ccc(Cl)c(Cl)c1 (racemic) [HD-288, Methyl 1-(3,4-dichlorophenyl)-2-((methylamino)methyl)cyclopropanecarboxylate] | PWT after treatment (SNL rats; 3 μg i.t.): 24.9 ± 2.5 g; PWT before treatment (baseline) (SNL rats; before i.t. drug): 2.9 ± 0.4 g; anti-allodynic A50 (SNL rats; i.t. administration): 0.6 ± 0.3 µg; anti-allodynic effect (in words) (SNL rats): significantly greater than clonidine
5 | 106 ± 21 | 8.62 ± 0.71 | 1360 ± 198 | 1.31 | CNCC1CC1(C(=O)OC)c1ccc(OC)c(OC)c1 (racemic) [HD-289, Methyl 1-(3,4-dimethoxyphenyl)-2-((methylamino)methyl)cyclopropanecarboxylate hydrochloride] | –
6 | 329 ± 54 | 289 ± 24 | 1840 ± 350 | 2.36 | CNCC1CC1(C(=O)OC)c1ccccc1Cl (racemic) [HD-290, Methyl 1-(2-chlorophenyl)-2-((methylamino)methyl)cyclopropanecarboxylate] | –
7 | – | – | – | – | Clc1cccc(Cl)c1N=C1NCCN1 [Clonidine, clonidine, reference compound] | anti-allodynic effect (in words) (SNL rats): reversed mechanical allodynia
8 | 946 ± 71 | 44.9 ± 1 | > 10000 | 2.51 | CNC[C@H]1C[C@@]1(C(=O)OC)c1ccc(Br)cc1 [HD-324, (1S,2S)-methyl 1-(4-bromophenyl)-2-((methylamino)methyl)cyclopropanecarboxylate] | –
9 | 47 ± 2.9 | 2.49 ± 0.07 | 333 ± 79 | 2.51 | CNC[C@@H]1C[C@]1(C(=O)OC)c1ccc(Br)cc1 [HD-325, (1R,2R)-methyl 1-(4-bromophenyl)-2-((methylamino)methyl)cyclopropanecarboxylate] | –
10 | 40.5 ± 4.3 | 8.11 ± 0.8 | – | 2.95 | CNC[C@H]1C[C@@]1(C(=O)OC)c1ccc(Cl)c(Cl)c1 [HD-326, (1S,2S)-methyl 1-(3,4-dichlorophenyl)-2-((methylamino)methyl)cyclopropanecarboxylate] | –
11 | 2.42 ± 0.31 | 0.31 ± 0.01 | – | 2.95 | CNC[C@@H]1C[C@]1(C(=O)OC)c1ccc(Cl)c(Cl)c1 [HD-327, (1R,2R)-methyl 1-(3,4-dichlorophenyl)-2-((methylamino)methyl)cyclopropanecarboxylate] | –
12 | 18.4 ± 2.5 | 4.57 ± 0.66 | 87.9 ± 9.5 | 3.17 | CNC[C@H]1C[C@@]1(C(=O)OC)c1ccc(Br)c(Br)c1 [HD-328, (1S,2S)-methyl 1-(3,4-dibromophenyl)-2-((methylamino)methyl)cyclopropanecarboxylate] | –
13 | 1.71 ± 0.05 | 0.62 ± 0.12 | 35.2 ± 4.6 | 3.17 | CNC[C@@H]1C[C@]1(C(=O)OC)c1ccc(Br)c(Br)c1 [HD-329, (1R,2R)-methyl 1-(3,4-dibromophenyl)-2-((methylamino)methyl)cyclopropanecarboxylate] | –
14 | 79.8 ± 21 | > 10000 | – | 3.54 | CNC[C@H]1C[C@@]1(C(=O)OC)c1ccc(-c2ccccc2)cc1 [HD-332, (1S,2S)-methyl 1-([1,1′-biphenyl]-4-yl)-2-((methylamino)methyl)cyclopropanecarboxylate] | –
15 | 2.69 ± 0.62 | 86.6 ± 19 | – | 3.54 | CNC[C@@H]1C[C@]1(C(=O)OC)c1ccc(-c2ccccc2)cc1 [HD-333, (1R,2R)-methyl 1-([1,1′-biphenyl]-4-yl)-2-((methylamino)methyl)cyclopropanecarboxylate] | –

Row | Structure (SMILES) | Ki [1, 4] [nM] | Ki [2, 5] [nM] | IC50 [3, 6] [nM] | Log-P (Log-P (Table 1)) | also measured
16 | CNCC1CC1(C(=O)OC)c1ccc2ccccc2c1 (racemic) [HD-287, Methyl 2-((methylamino)methyl)-1-(naphthalen-2-yl)cyclopropanecarboxylate hydrochloride] | – | 3.49 ± 0.64 | – | 2.82 | Ki [1]: 6.58 ± 0.71 nM; IC50 [3]: 177 ± 44 nM
17 | CCN(CC)C(=O)C1(c2ccccc2)CC1CN (centres unmarked) [HD-283, Milnacipran, reference compound] | – | – | – | 1.91 | Ki [1]: 35.1 ± 4.4 nM; Ki [2]: 23.8 ± 1.7 nM; transporter selectivity (in words) ([2]; NET versus SERT binding): non-selective; IC50 [3]: 1970 ± 230 nM; anti-allodynic effect (in words) (SNL rats): reversed mechanical allodynia
18 | CNC[C@H]1C[C@@]1(C(=O)OC)c1ccc2ccccc2c1 [HD-330, (1S,2S)-methyl 2-((methylamino)methyl)-1-(naphthalen-2-yl)cyclopropanecarboxylate] | – | 16.4 ± 0.52 | 313 ± 55 | 2.82 | Ki [1]: 27 ± 3.4 nM
19 | CNC[C@@H]1C[C@]1(C(=O)OC)c1ccc2ccccc2c1 [HD-331, (1R,2R)-methyl 2-((methylamino)methyl)-1-(naphthalen-2-yl)cyclopropanecarboxylate] | – | 10.4 ± 0.89 | 320 ± 51 | 2.82 | Ki [1]: 15 ± 2.8 nM
